The values that follow come from patent US20240000883A1, “METHOD OF SENSITIZING CANCERS TO IMMUNOTHERAPY USING IMMUNOMODULATORY AGENTS” (The Trustees of Columbia University in the City of New York, priority 2020, published 2024).

Assay [1] concerns de novo pancreatic ductal adenocarcinoma (PDAC). Put plainly: Survival of transgenic KPC mice bearing de novo PDAC under long-term treatment. It counts as in vivo. How it is done:
FIG. 1A is a graph showing the percent survival of transgenic Kras-LSL^[…], p53-LSL^172H, Pdx-1-cre (KPC) mice bearing de novo pancreatic ductal adenocarcinoma (PDAC) treated with gemcitabine (GEM).
FIG. 1 presents data showing that iRGD therapy increases CD8^+ T cells in transgenic PDAC mice. […] We randomized mice to therapy with intraperitoneal (IP) gemcitabine alone (100 mg/kg/injection), intravenous (IV) iRGD alone (100 μg/injection) or gemcitabine co-administered with iRGD. Mice were followed with high resolution ultrasound and manual palpation until at least one tumor nodule of 4-5 mm became both palpable and visible on consecutive ultrasound exams. At this point, the mice were randomized to one of the three treatment arms. Treatment was given every 4 days until the animals were sacrificed for having signs of distress. […] Of note, while there was a difference in median survival favoring the combination (71 days versus 84 days), there was a more striking difference in the tail of the survival curve such that survival at 180 days was 0% for gemcitabine alone versus 40% in the iRGD+gemcitabine group.

The subject of assay [2] is Tregs in KPC-luc tumors. Put plainly: Targeting of Tregs in KPC-luc PDAC by intravenously injected FAM-iRGD. It counts as in vivo, mice. Here is the method:
FIG. 2H is an image showing that intravenously injected FAM-iRGD (green) targets CD4^+ (magenta) Foxp3^+ (red) Tregs in KPC-luc PDAC (white arrowheads). Some iRGD-targeted Foxp3^+ cells were CD4^neg (black arrowheads). Blue=DAPI. Scale bar, 50 μm.
Based on the finding that Tregs in PDAC, but not those in the spleen expressed αv integrins and NPR-1 (the receptors of iRGD), studies were performed to determine whether iRGD selectively targets PDAC-infiltrating Tregs. Intravenously injected FAM-iRGD (green) targets CD4^+ (magenta) Foxp3^+ (red) Tregs in KPC-luc PDAC (See FIG. 2H, white arrowheads). Some iRGD-targeted Foxp3^+ cells were CD4^neg (black arrowheads). Blue, DAPI; scale bar, 50 μm.

Consider `Nc1ccn([C@@H]2O[C@H](CO)[C@@H](O)C2(F)F)c(=O)n1` [gemcitabine], for which, in assay [1] (180 days), the “survival at 180 days” value came to 0%. Besides, the median survival in assay [1] (treatment every 4 days) came out at 71 days. For “FAM-iRGD: fluorescein (FAM)-labeled iRGD”, the “targeting of CD4+ Foxp3+ Tregs in KPC-luc PDAC” value in assay [2] is on record as “targets”.
